Patent US10351573B2, “Benzoic acid, benzoic acid derivatives and heteroaryl carboxylic acid conjugates of hydrocodone, prodrugs, methods of making and uses thereof” (KemPharm, Inc., priority 2009, dated 2019)
Ends that are not written are not given here.

What was measured:
[1] = Chemical stability: hydrolysis of conjugates in water for one hour; type: physicochemical
Procedure: Exemplary conjugates of hydrocodone of the present technology and control test conjugates not of the present technology were tested for chemical stability under conditions similar to what a potential drug abuser may use to “extract” the active portion of the molecule, for example dissolved in water, hydrochloric acid or sodium bicarbonate either at ambient temperature or 100° C.

[2] = Water solubility / feasibility of intranasal or intravenous dosing; details: water
[3] = Hydrolysis to hydrocodone in 1 N hydrochloric acid for 1 hour
[4] = Hydrolysis in 5% NaHCO3 for one hour; type: physicochemical
[5] = Oral PK profiles in rats (plasma hydrocodone, hydromorphone, intact Bz-HC by LC/MS/MS); details: equivalent to 2 mg/kg hydrocodone freebase

Compound | %-release (conjugate hydrolyzed) in water ([1]; 100° C.) [%] | %-release (conjugate hydrolyzed) in water ([1]; ambient (about 20° C.)) [%] | water solubility (in words) [2] | %-release in 5% NaHCO3 ([4]; 5% NaHCO3, 100° C.) [%] | %-release in 5% NaHCO3 ([4]; 5% NaHCO3, ambient (~20° C.)) [%] | further results
COc1ccc(C(=O)OC2=CC[C@H]3[C@H]4Cc5ccc(OC)c6c5[C@@]3(CCN4C)C2O6)cc1 (some centres unmarked) [Compound 4-MeO-Bz-HC] | 0 | 0 | hydrophobic | – | – | –
COc1ccc2c3c1OC1C(OC(=O)c4ccc(O)cc4)=CC[C@H]4[C@@H](C2)N(C)CC[C@]314 (some centres unmarked) [Compound 4-OH-Bz-HC] | 0 | 0 | hydrophobic | 23 | 1 | %-release in 1N HCl ([3]; 100° C.): 30%; %-release in 1N HCl ([3]; ambient (~20° C.)): 0%
COc1ccc2c3c1OC1C(OC(=O)COCC(=O)O)=CC[C@H]4[C@@H](C2)N(C)CC[C@]314 (some centres unmarked) [Diglycolate-HC, reference compound] | – | – | water soluble | – | – | –
COc1ccc2c3c1OC1C(OC(=O)c4cccnc4)=CCC4C(C2)N(C)CCC314 (centres unmarked) [Nicotinate-HC, nicotinate-hydrocodone] | – | – | hydrophobic | – | – | AUC values of hydrocodone and hydromorphone compared to Hydrocodone.BT (in words) [5]: within the range of bioequivalence
COc1ccc2c3c1OC1C(OC(=O)c4ccc5c(c4)OCO5)=CC[C@H]4[C@@H](C2)N(C)CC[C@]314 (some centres unmarked) [Piperonylate-HC] | – | – | hydrophobic | – | – | water solubility (in words) ([2]; listed as piperonylate-HC): poorly water soluble
Tyr-Tyr-Phe-Phe-Ile-Hydrocodone (YYFFI-Hydrocodone) [YYFFI-HC, reference compound] | – | – | – | 70 | 0 | –
